This assay addresses Voltage-dependent T-type calcium channel subunit alpha-1H (Homo sapiens, UniProt O95180). The experiment in a line: PubChem AID 489005.
Voltage-dependent T-type calcium channel subunit alpha-1H, sequence (O95180 whole entry): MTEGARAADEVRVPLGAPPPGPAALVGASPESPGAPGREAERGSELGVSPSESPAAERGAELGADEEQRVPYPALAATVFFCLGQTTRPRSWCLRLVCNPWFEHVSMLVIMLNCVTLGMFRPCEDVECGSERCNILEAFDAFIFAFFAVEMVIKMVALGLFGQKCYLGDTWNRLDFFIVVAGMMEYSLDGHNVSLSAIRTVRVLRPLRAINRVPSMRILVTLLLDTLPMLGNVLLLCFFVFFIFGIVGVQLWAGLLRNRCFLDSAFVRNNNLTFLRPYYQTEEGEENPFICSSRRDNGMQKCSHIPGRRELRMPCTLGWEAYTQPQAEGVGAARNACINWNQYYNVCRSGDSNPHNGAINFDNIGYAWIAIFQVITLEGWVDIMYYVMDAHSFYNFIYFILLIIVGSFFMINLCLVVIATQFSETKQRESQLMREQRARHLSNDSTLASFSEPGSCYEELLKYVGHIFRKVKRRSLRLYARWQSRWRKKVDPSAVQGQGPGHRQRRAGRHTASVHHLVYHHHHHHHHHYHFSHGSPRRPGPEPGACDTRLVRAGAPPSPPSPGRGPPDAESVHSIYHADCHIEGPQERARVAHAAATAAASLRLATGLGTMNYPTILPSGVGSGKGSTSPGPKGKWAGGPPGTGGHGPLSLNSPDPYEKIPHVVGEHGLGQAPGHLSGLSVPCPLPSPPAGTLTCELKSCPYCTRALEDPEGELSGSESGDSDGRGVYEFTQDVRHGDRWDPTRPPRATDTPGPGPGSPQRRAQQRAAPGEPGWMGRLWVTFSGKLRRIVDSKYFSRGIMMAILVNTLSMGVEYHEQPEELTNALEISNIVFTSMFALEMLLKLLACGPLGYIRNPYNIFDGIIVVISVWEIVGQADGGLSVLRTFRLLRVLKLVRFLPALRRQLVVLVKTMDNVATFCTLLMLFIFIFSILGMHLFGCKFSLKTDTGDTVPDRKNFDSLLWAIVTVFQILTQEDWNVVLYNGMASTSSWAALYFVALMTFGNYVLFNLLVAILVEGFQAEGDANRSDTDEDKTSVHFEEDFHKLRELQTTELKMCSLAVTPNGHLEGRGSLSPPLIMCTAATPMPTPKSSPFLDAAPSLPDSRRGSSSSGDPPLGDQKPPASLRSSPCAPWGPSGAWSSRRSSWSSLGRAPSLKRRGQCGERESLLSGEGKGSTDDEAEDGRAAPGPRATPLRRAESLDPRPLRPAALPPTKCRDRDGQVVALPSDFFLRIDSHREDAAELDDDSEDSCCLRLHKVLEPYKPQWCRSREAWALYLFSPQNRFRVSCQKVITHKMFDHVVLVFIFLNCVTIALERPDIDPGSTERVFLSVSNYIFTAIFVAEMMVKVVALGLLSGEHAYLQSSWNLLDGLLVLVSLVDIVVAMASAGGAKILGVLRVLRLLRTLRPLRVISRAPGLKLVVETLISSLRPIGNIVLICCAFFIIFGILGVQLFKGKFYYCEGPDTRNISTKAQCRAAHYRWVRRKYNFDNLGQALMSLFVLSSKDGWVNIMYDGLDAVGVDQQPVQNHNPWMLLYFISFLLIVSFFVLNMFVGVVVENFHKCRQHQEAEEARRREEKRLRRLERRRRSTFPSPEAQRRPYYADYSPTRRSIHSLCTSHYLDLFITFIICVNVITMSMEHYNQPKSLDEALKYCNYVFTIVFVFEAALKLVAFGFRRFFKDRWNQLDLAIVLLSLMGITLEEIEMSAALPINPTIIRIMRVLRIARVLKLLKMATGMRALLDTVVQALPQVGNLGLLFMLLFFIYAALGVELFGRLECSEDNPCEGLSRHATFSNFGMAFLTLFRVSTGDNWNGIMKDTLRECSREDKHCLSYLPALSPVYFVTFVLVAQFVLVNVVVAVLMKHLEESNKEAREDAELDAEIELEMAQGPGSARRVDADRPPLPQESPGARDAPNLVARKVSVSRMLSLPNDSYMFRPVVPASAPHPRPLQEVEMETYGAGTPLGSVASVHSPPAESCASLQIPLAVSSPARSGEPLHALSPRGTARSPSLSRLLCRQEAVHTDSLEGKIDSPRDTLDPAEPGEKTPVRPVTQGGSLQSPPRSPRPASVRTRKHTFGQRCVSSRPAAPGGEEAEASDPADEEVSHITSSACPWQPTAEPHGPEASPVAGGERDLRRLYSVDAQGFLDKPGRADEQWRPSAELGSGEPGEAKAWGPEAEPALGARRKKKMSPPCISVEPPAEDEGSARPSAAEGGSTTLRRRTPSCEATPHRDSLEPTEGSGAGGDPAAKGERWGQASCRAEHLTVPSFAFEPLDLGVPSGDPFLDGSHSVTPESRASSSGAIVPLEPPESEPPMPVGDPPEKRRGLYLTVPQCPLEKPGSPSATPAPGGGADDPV
Broadly, the EC50 is the midpoint of the concentration-response curve. In the case of `CC(CC(=O)c1ccncc1)=Nc1ccccc1O`, the half-maximal effective concentration (EC50) came to 3.26 µM. As to `COc1cccc(N2CCN(c3cc(O)n(-c4ccc(Cl)c(Cl)c4)c3O)CC2)c1` [1-(3,4-dichlorophenyl)-3-[4-(3-methoxyphenyl)-1-piperazinyl]pyrrolidine-2,5-dione], the EC50 came to 6.84 µM. As to `O=NC1c2cc(S(=O)(=O)N3CCCCC3)ccc2-c2ccc(S(=O)(=O)N3CCCCC3)cc21` [2,7-Bis-(piperidine-1-sulfonyl)-fluoren-9-one oxime], the EC50 was found to be 12.3 µM. On to `COc1ccc(C(C(=O)C(O)c2c[nH]c3ccccc23)N2CCN(c3ccccc3)CC2)cc1` (stereo unspecified) [MLS000053208], for which the EC50 is 8.16 µM. For `CCCCCCC1=Cc2c/c(=C3/NN=C(c4ccccc4)O3)c(=O)oc2=CC1=O` [MLS000068623], the EC50 was 3 µM.

Turning to `CC(C)CC(C(=O)C(C#N)c1nc2ccccc2[nH]1)N1C(=O)c2ccccc2C1=O` (stereo unspecified) [MLS000109709], the EC50 turned out to be 14.8 µM. Then `O=NC(c1ccc(Cl)cc1Cl)c1ncc(C(F)(F)F)cc1Cl` (stereo unspecified) [MLS000540015], with 2.11 µM; and `CCN(CC)S(=O)(=O)c1ccc2c(c1)C(N=O)c1cc(S(=O)(=O)N(CC)CC)ccc1-2` [N2,N2,N7,N7-tetraethyl-9-hydroxyimino-fluorene-2,7-disulfonamide], with 1.6 µM; and `Cc1ccc(-c2csc(NC(=O)c3cccc(-n4c(O)ccc4O)c3)n2)o1` [SMR000018545], with 3.78 µM. Then `CC1CCN(S(=O)(=O)c2ccc(N=NC(C#N)C#N)cc2)CC1` [SMR000162322], with 1.52 µM. With `Oc1cc(SCCc2nc3ccccc3[nH]2)c(O)n1-c1ccc(Cl)cc1` [SMR000199589], the EC50 was found to be 613 µM.

The values above are taken from BindingDB's records for doi:10.7270/Q2B856KG (Vanderbilt Screening Center For Gpcrs, Ion Channels and …, 2010).
